Measured values: patent US10478421B1, “Sortilin binding compounds, formulations, and uses thereof” (University of Florida, priority 2016, dated 2019)
Residues, ends and D or L forms follow the SMILES beside them.

Target: T1, hsortilin (Homo sapiens, UniProt Q99523)
T1 construct: Human sortilin (hsortilin) (Ser78-Asn755) with C-terminal 6-His tag; purchased R&D Systems, Inc. (Minneapolis, Minn.)
T1 sequence (Q99523 78-755): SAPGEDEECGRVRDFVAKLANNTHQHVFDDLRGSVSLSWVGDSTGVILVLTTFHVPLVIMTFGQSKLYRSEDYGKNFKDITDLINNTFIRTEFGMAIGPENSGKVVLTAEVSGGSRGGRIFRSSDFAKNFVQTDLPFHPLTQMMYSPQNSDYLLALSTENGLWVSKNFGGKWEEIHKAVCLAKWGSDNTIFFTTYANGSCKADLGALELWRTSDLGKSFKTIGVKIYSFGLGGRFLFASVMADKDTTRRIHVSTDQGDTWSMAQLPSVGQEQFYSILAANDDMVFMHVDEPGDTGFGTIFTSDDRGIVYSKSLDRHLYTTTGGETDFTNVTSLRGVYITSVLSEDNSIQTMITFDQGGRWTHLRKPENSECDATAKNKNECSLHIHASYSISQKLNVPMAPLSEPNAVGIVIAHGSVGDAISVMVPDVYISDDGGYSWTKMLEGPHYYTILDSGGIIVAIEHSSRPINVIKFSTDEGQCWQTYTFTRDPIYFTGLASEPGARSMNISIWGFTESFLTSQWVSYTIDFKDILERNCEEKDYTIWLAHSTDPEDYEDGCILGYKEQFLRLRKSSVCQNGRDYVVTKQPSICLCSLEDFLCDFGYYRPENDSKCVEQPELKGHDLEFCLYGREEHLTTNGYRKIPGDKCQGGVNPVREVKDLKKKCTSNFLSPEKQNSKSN
Experiment: Surface plasmon resonance on hsortilin immobilized on CM7 chips (Example 2)
Type: binding
Method: Surface plasmon resonance (SPR) measurements were performed on a Biacore T200 instrument equipped with two separate CM7 sensor chips, one with about 20,000 response units (RU) and another with about 27,000 RU of hsortilin covalently immobilized. […] For all other SPR injections, regeneration consisted of injections of running buffer alone. GE BIAcore T200 evaluation software version 3.0 (BIAevaluate) was used to analyze and export results. […] PIP3 containing nanodiscs were flowed at 2:1 dilutions to obtain kinetic data fitted using about 27,000 RU CM7 surface. Kinetic fit generated with BIAevaluate and local Rmax using Langmuir 1:1 binding model exported from BIAevaluate to Microsoft Excel 2016 with fit indicated by the black line.

Row | SMILES | Kd (C-term NT alone, steady state) | IC50 (100 nM NT, read-out: IC50 for inhibition of full length NT binding to sortilin)
1 | CC[C@H](C)[C@H](NC(=O)[C@H](Cc1ccc(O)cc1)NC(=O)[C@@H]1CCCN1)C(=O)N[C@@H](CC(C)C)C(=O)O [C-term NT, P—Y-I-L, reference compound] (H-PYIL-OH; N-terminus and C-terminus assumed) | 138 nM | –
2 | CCCC(=O)OC[C@H](COP(=O)(O)O[C@H]1[C@H](O)[C@@H](OP(=O)(O)O)[C@H](OP(=O)(O)O)[C@@H](OP(=O)(O)O)[C@H]1O)OC(=O)CCC [diC4-PIP3, dibutanoyl PIP3, reference compound] | – | ~750 nM
